Measurements from US5747253A, “Combinatorial oligomer immunoabsorbant screening assay for transcription factors and other biomolecule binding” (Isis Pharmaceuticals, Inc., priority 1995, dated 1998).

Tests used:
gag-pol stem loop = experiment: Gel shift analysis of RNA oligonucleotide sets binding to HIV gag-pol stem loop (triple strand); conditions: 100 mM NaCl, 25 mM TRIS acetate pH5, 2 mM MgCl2, 1 mM spermidine
Excerpt: Binding to double stranded DNA or RNA is possible by formation of a three stranded complex with the incoming third strand binding in the major groove of the duplex RNA or DNA. The molecular nature of the interaction between the oligomer and target need not be known in order to practice the technique. Thus, it is possible that novel interactions between oligomers and DNA or RNA will be responsible for binding. One of the limitations in the design of triple strand interactions is the need to have a long stretch of homopurines as a target. The 3' (right) side of the gag-pol stem loop is homopurine except for a pair of cytosines near the bottom of the stem. To determine the best oligonucleotide to bind to the gag-pol stem loop, a group of RNA oligonucleotide sets was designed to bind to the purine-rich strand of the gag-pol stem-loop by Hoogstein base pairing and prepared in accordance with Examples 2 and 6. Binding to the gag-pol stemloop was measured by gel shift analysis as previously described in Example 8 with the following modifications: the radiolabeled gag-pol RNA was incubated with the oligonucleotide in 100 mM NaCl, 25 mM TRIS acetate pH5, 2 mM Mg Cl2, 1 mM spermidine. The gel was a 15% acrylamide with 50 mM NaCl 2 mM MgCl2 added to the running buffer.

c-rel = experiment: Capture assay for c-rel binding (streptavidin plates, Jurkat nuclear extract); conditions: library pools at 1 μM; native binding site at 100 nM
Description: Crude nuclear extracts were prepared as detailed by Franza, et al., Nature 1987, 330, 391, from Jurkat cells stimulated 4 hours with 1 μM PHA and 100 nM PMA to induce the expression of rel. The extract was then preabsorbed with 100 μl streptavidin agarose per ml for 10 minutes. This was followed with the addition of poly dI.dC as a non specific competitor at a concentration of 100 μg/ml of extract.
Phosphorothioate oligonucleotides were synthesized with the sequence […]-B (SEQ ID NO: 22) and […]-B (SEQ ID NO:23), where B=biotin, as described in Examples 3 and 9. The complementary oligonucleotides were then hybridized to create the double stranded NF-kB binding site, which was used as a positive control in the assay. A combinatorial phosphorothioate library was also synthesized with the general sequence TNNNXNNNT-B, where X=A, G, C, or U as described in Examples 3 and 6.
Each pool of the library was incubated in triplicate at a concentration of 1 μM with 100 μl of the extract for 20 minutes at room temperature. As a positive control, the native double stranded NF-kB binding site was incubated at 100 nM with the same amount of extract. Following the incubation each mixture was added to streptavidin coated microtiter plates (Elkay Lab Systems) and incubated 20 minutes. […] Color development was measured 2 hours later by reading absorbance at 405 nm on a Titertek Multiscan ELISA plate reader.

HIV-tat protein [1] = experiment: Capture assay for HIV-tat binding; conditions: phosphorothioate library pools at 100 nM
Description: As a positive control, the native double stranded NF-kB binding site was incubated at 100 nM with the same amount of extract. Following the incubation each mixture was added to streptavidin coated microtiter plates (Elkay Lab Systems) and incubated 20 minutes. Unbound molecules were washed away with PBS. 10 μl of PBS plus 5% fetal calf serum was added to each well for 20 minutes at room temperature followed by aspiration and addition of 100 μl of 1:500 tat antisera in PBS plus 1% FCS for 2 hours at room temperature. The wells were then washed with PBS and 100 μl of 1:5000 Protein A/G-alkaline phosphatase (Pierce) added in PBS for 2 hours at room temperature. […] Color development was measured 2 hours later by reading absorbance at 405 nm on a Titertek Multiscan ELISA plate reader.
This and all other steps were carried out at room temperature. […] Protein A/G-alkaline phosphatase was bound to the tat antibodies followed by the addition of the PNPP substrate and quantitation of A 405 as detailed in Example 33.
Each pool of the phosphorothioate combinatorial library described in Example 33 was incubated at a concentration of 100 nM with tat protein as described in Example 34. Following incubation of the protein with the library pools, the complexes were captured on streptavidin plates and binding quantitated as in Example 33. […]

HIV-tat protein [2] = experiment: Competition assay for HIV-tat binding against ΔTAR-B; conditions: RNA library pools at 1 μM, 10 μM and 100 μM; ΔTAR-B 100 nM
Excerpt: A truncated version (residues 16-45; ΔTAR) of the TAR hairpin previously shown to bind tat was synthesized using 2'-O-methyl oligonucleotides as described in Example 4 and was biotin conjugated on the 3' end (ΔTAR-B) as described in Example 9. A combinatorial library was synthesized using RNA oligonucleotides with the sequence CCA NNX NNNNGCCUGGGAGCNNNNUGG, where X=A (SEQ ID NO:24), G (SEQ ID NO:25), C (SEQ ID NO:26), or U (SEQ ID NO:27) as described in Example 2 and 6.
The pools of the library at 0, 1, 10, or 100 μM were incubated with 100 μl of purified recombinant tat transcription factor (Repligen) at a concentration of 20 pg/μl for 15'. This and all other steps were carried out at room temperature. The competitor, ΔTAR-B, was then added at a concentration of 100 nM. Following a 20' incubation, the mixture was bound to streptavidin-coated microtiter plates as in Example 33. After the non-bound molecules were washed away with PBS, 100 μl of 1:500 tat antisera was added to each well for 2 hours. Protein A/G-alkaline phosphatase was bound to the tat antibodies followed by the addition of the PNPP substrate and quantitation of A 405 as detailed in Example 33.
In the competition mode library pools which bind the transcription factor prevent binding to the natural target (in this case the competitor ΔTAR) also present in the assay. […]

Substance | Kd (gag-pol stem loop) [µM] | further results
B2: RNA oligonucleotide (CCCUUCCCGUC; RNA, backbone not given here) [Set B2] | 10 | 
D2: RNA oligonucleotide (CCCUUCCCUUC; RNA, backbone not given here) [Set D2] | 10 | 
C2: RNA oligonucleotide (CCCUUCCCCUC; RNA, backbone not given here) [Set C2] | 1 | 
A2: RNA oligonucleotide (CCCUUCCCAUC; RNA, backbone not given here) [Set A2] | 10 | 
native NF-kB binding site: double stranded biotinylated phosphorothioate NF-kB binding site, SEQ ID NO: 22 and 23, positive control (chain 1 GGGGACTTTCCGCTGGGACTTTCTAG; chain 2 CTGGAAAGTCCCAGCGGAAGGTCCCC; all phosphorothioate, sugars by position and methylation of C not given here; biotinylated) |  | amount of c-rel bound, in words (c-rel): binds the greatest amount of rel
pool fixed at G: RNA library pool CCA NNX NNNNGCCUGGGAGCNNNNUGG, X=G (CCANNGNNNNGCCUGGGAGCNNNNUGG; RNA, backbone and the base at N not given here) |  | amount of tat bound, in words (HIV-tat protein [1]): clearly binds more tat than the others; inhibition of tat binding to ΔTAR, in words (HIV-tat protein [2]): least effect
